According to the NIST ThermoML archive (doi:10.1016/j.jct.2015.03.004):
Numbers after ± are expanded uncertainties.

Legend:
[1] = 101.33 kPa, Liquid; for speed of sound: Sing-around technique in a fixed-path interferometer; for mass density: Vibrating tube method
[2] = refractive index (Na D-line) (dimensionless); conditions: 298.15 K; 101.33 kPa; Liquid; Standard Abbe refractometry
[3] = mn = molality of the nth substance listed, in mol/kg; conditions: 298.15 K, 101.33 kPa, Liquid; for speed of sound: Sing-around technique in a fixed-path interferometer; for mass density: Vibrating tube method
[4] = refractive index (Na D-line) (dimensionless); mn = molality of the nth substance listed, in mol/kg; conditions: 298.15 K, 101.33 kPa, Liquid, Standard Abbe refractometry

CCOS(=O)(=O)[O-].CCn1cc[n+](C)c1 [1-ethyl-3-methylimidazolium ethyl sulfate]
[1], 298.15 K
Conditions	mass density [kg/m3]	speed of sound [m/s]
–	1237.72 ± 0.43	1680.2 ± 1.6

Conditions	refractive index
[2]	1.4784 ± 0.0005

CCOS(=O)(=O)[O-].CCn1cc[n+](C)c1 [1-ethyl-3-methylimidazolium ethyl sulfate] + C1CCCCC1
m1 = 0.0999
Conditions	mass density [kg/m3]	refractive index	speed of sound [m/s]
[3]	773.884 ± 0.24	–	1254.3 ± 1.5
[4]	–	1.4237 ± 0.0005	–

CCCCCCn1cc[n+](C)c1.[Br-] [3-hexyl-1-methyl-1H-imidazolium bromide]
[1], 298.15 K
Conditions	mass density [kg/m3]	speed of sound [m/s]
–	1223.81 ± 0.42	1587.5 ± 1.6

Conditions	refractive index
[2]	1.5308 ± 0.0005

CCCCCCn1cc[n+](C)c1.[Br-] [3-hexyl-1-methyl-1H-imidazolium bromide] + C1CCCCC1
m1 = 0.0999
Conditions	mass density [kg/m3]	refractive index	speed of sound [m/s]
[3]	773.932 ± 0.24	–	1254.3 ± 1.5
[4]	–	1.4236 ± 0.0005	–

CCCCCCn1cc[n+](C)c1.[Br-] [3-hexyl-1-methyl-1H-imidazolium bromide] + CCCCCC
m1 = 0.1
Conditions	mass density [kg/m3]	refractive index	speed of sound [m/s]
[3]	655.221 ± 0.64	–	1077.4 ± 2.6
[4]	–	1.3737 ± 0.0007	–

C1CCCCC1 [cyclohexane]
[1], 298.15 K
Conditions	mass density [kg/m3]	speed of sound [m/s]
–	773.87 ± 0.24	1253.7 ± 1.5

Conditions	refractive index
[2]	1.4235 ± 0.0005

C1CCCCC1 [cyclohexane] + c1ccsc1
m2 = 0
Conditions	mass density [kg/m3]	refractive index	speed of sound [m/s]
[3]	773.87 ± 0.24	–	1253.7 ± 1.5
[4]	–	1.4235 ± 0.0005	–

CCCCCC [hexane]
[1], 298.15 K
Conditions	mass density [kg/m3]	speed of sound [m/s]
–	655.175 ± 2.5	1077.2 ± 5.2

Conditions	refractive index
[2]	1.3722 ± 0.0011

CCCCCC [hexane] + c1ccsc1
m2 = 0
Conditions	mass density [kg/m3]	refractive index	speed of sound [m/s]
[3]	655.175 ± 2.5	–	1077.2 ± 5.1
[4]	–	1.3722 ± 0.0011	–

c1ccsc1 [thiophene]
[1]
Conditions	mass density [kg/m3]	speed of sound [m/s]
298.15 K	1058.56 ± 0.28	1259 ± 1.5
303.15 K	–	1258.7 ± 1.5

Conditions	refractive index
[2]	1.5252 ± 0.0005

c1ccsc1 [thiophene] + C1CCCCC1
Conditions	mass density, [3] [kg/m3]	refractive index, [4]	speed of sound, [3] [m/s]
m1 = 0.0404	774.512 ± 0.24	1.424 ± 0.0005	1253.4 ± 1.5
m1 = 0.0503	774.668 ± 0.24	1.4241 ± 0.0005	1253.4 ± 1.5
m1 = 0.0602	774.824 ± 0.24	1.4242 ± 0.0005	1253.3 ± 1.5
m1 = 0.0703	774.983 ± 0.24	1.4243 ± 0.0005	1253.2 ± 1.5
m1 = 0.0803	775.14 ± 0.24	1.4244 ± 0.0005	1253.2 ± 1.5
m1 = 0.0902	775.295 ± 0.24	1.4245 ± 0.0005	1253.1 ± 1.5
m1 = 0.1003	775.452 ± 0.24	1.4246 ± 0.0005	1253 ± 1.5
m1 = 0.1103	775.608 ± 0.24	1.4247 ± 0.0005	1252.9 ± 1.5
m1 = 0.1203	775.764 ± 0.24	1.4248 ± 0.0005	1252.9 ± 1.5
m1 = 0.1303	775.917 ± 0.24	1.4249 ± 0.0005	1252.8 ± 1.5
m1 = 0.1402	776.075 ± 0.24	1.425 ± 0.0005	1252.7 ± 1.5
m1 = 0.1503	776.227 ± 0.24	1.4251 ± 0.0005	1252.6 ± 1.5
m1 = 0.1603	776.38 ± 0.24	1.4252 ± 0.0005	1252.6 ± 1.5
m1 = 0.1702	776.53 ± 0.24	1.4253 ± 0.0005	1252.5 ± 1.5
m1 = 0.1802	776.684 ± 0.24	1.4254 ± 0.0005	1252.4 ± 1.5

c1ccsc1 [thiophene] + CCCCCC
Conditions	mass density, [3] [kg/m3]	refractive index, [4]	speed of sound, [3] [m/s]
m1 = 0.0303	655.82 ± 2.5	1.3725 ± 0.0011	1077.3 ± 5.1
m1 = 0.0354	655.927 ± 2.5	1.3726 ± 0.0011	1077.3 ± 5.1
m1 = 0.0403	656.03 ± 2.5	1.3727 ± 0.0011	1077.3 ± 5.1
m1 = 0.0453	656.133 ± 2.5	1.3728 ± 0.0011	1077.3 ± 5.1
m1 = 0.0504	656.239 ± 2.5	1.3729 ± 0.0011	1077.4 ± 5.1
m1 = 0.0554	656.34 ± 2.5	1.373 ± 0.0011	1077.4 ± 5.1
m1 = 0.0603	656.441 ± 2.5	1.3731 ± 0.0011	1077.4 ± 5.1
m1 = 0.0654	656.545 ± 2.5	1.3732 ± 0.0011	1077.4 ± 5.1
m1 = 0.0704	656.646 ± 2.5	1.3733 ± 0.0011	1077.5 ± 5.1
m1 = 0.0753	656.745 ± 2.5	1.3734 ± 0.0011	1077.5 ± 5.1
m1 = 0.0804	656.847 ± 2.5	1.3735 ± 0.0011	1077.5 ± 5.1
m1 = 0.0852	656.945 ± 2.5	1.3736 ± 0.0011	1077.6 ± 5.1
m1 = 0.0903	657.046 ± 2.5	1.3737 ± 0.0011	1077.6 ± 5.1
m1 = 0.0954	657.146 ± 2.5	1.3738 ± 0.0011	1077.6 ± 5.1
m1 = 0.1004	657.243 ± 2.5	1.3739 ± 0.0011	1077.7 ± 5.1
m1 = 0.1053	657.342 ± 2.4	1.374 ± 0.0011	1077.7 ± 5.1
m1 = 0.1104	657.441 ± 2.4	1.3741 ± 0.0011	1077.8 ± 5.1
